Data reported in patent US20130157858A1, “METHODS AND SYSTEMS USEFUL FOR C[…] WATERMILFOIL” (priority 2011, published 2013).

Tests used:
[1] = system: hybrid milfoil population; conditions: hybrid milfoil population (B), 6 weeks following applications of various rates, FIG. 2; cited from earlier work
[2] = system: auxin herbicide sensitive Eurasian milfoil biotype; conditions: Eurasian milfoil biotype (A), 6 weeks following applications of various rates, FIG. 2; cited from earlier work
[3] = system: tolerant hybrid milfoil lineage from an Upper Midwest US lake; experiment: 14-day laboratory apical tissue assay, fluridone herbicide response (beta-carotene); assay type: in vivo, hybrid (Northern×Eurasian) watermilfoil; conditions: 14-day apical tissue assay, various rates of fluridone, compared with the susceptible reference Eurasian milfoil lineage (EWM), n=4, FIG. 3
Source text: FIG. 3 depicts fluridone herbicide response of a tolerant hybrid milfoil lineage from an Upper Midwest US lake compared to response of a susceptible reference Eurasian milfoil lineage (EWM) in a 14-day laboratory apical tissue assay. […] Error bars are +1 standard deviation (n=4).

Row | Compound | response in aboveground biomass (sensitivity/tolerance) [1] | response in aboveground biomass (sensitivity/tolerance) [2] | beta-carotene reduction [3]
1 | O=C(O)COc1ccc(Cl)cc1Cl [2,4-d, 2,4-dichlorophenoxyacetic acid] | displaying auxin tolerance | sensitive | –
2 | O=C(O)COc1nc(Cl)c(Cl)cc1Cl [triclopyr] | displaying auxin tolerance | sensitive | –
3 | fluridone | – | – | less beta-carotene reduction for the tolerant hybrid lineage versus the reference Eurasian lineage
